# Experimental data as given in patent publication US8722714B2, “Oxazolidine derivatives as NMDA antagonists” (The Honk Kong University of Science and Technology, priority 2008, dated 2014).
# Assays:
# [1] = tested on: rat primary cortical neurons; experiment: Neuron survival assay against NMDA insult (LDH release); format: cell-based; settings: NMDA 20 μM; for protection of rat primary cortical neurons from NMDA insults (LDH release, fold change vs DMSO): compounds 10-30 μg/ml, 11 DIV; for cell death (LDH release, cell cytotoxicity vs DMSO): compound 10 μg/mL, DIV 11
# Protocol: Primary cortical and hippocampal neurons were prepared from embryonic day 18 (E18) Sprague-Dawley rats. Neurons were plated on 24-well plate (TPP, Corning) at a density of 2×10^5 cells per well using Neurobasal medium (Invitrogen) supplemented with 2% B27 (Invitrogen). Neurons at 11-12 days in vitro (12 DIV) were subjected to drug treatment. Neurons were pretreated with the test compound for 2 hours prior to NMDA treatment. 0.1 μM (+)-MK-801 Hydrogen Maleate (Sigma) was added as a positive control. Briefly, the neurons were rinsed with Locke's solution (5 mM potassium chloride, 128 mM sodium chloride, 2.7 mM calcium chloride, 1 mM di-sodium hydrogen orthophosphate, 5 mM HEPES and 10 mM glucose in Milli-Q water) without Mg^2+, and incubated with addition of glycine (10 μM) for 15 minutes. After the incubation, the neurons were co-treated with the test compound (dissolved in Locke's plus glycine solution) and NMDA (20 μM; Sigma) for 20 minutes. Neurons were rinsed with Locke's plus Mg^2+ and replaced with fresh growth medium. The cell death was assayed and quantified using the lactate dehydrogenase release assay (Roche) after 24 hours.
# Embryonic rat cortical neurons (11 DIV) were treated with NMDA (20 μM) in the absence or presence of the LC series of compounds (10-30 μg/ml). […] LDH release in the medium after overnight incubation was measured and fold change was calculated when compared to the solvent control, DMSO.
# Embryonic rat cortical neurons (DIV 11) were treated with NMDA (20 μM) in the absence or presence of LC-01 or LC-02 (μg/mL). LDH release in the medium after overnight incubation was measured and cell cytotoxicity was calculated in percentage when compared to the solvent control, DMSO.
# Embryonic rat cortical neurons (DIV 11) were treated with NMDA (20 μM) in the absence or presence of LC-06 (μg/mL). LDH release in the medium after overnight incubation was measured and cell cytotoxicity was calculated in percentage when compared to the solvent control, DMSO.
# Embryonic rat cortical neurons (11 DIV) were treated with NMDA (20 μM) in the absence or presence of LC-24 or LC-25 (μg/mL). LDH release in the medium after overnight incubation was measured and cell cytotoxicity was calculated in percentage when compared to solvent control (DMSO).
# [2] = tested on: scopolamine-induced memory deficit mice; experiment: Morris Water Maze in scopolamine-induced memory deficit mice; format: in vivo; settings: scopolamine 4 mg/kg i.p.
# Protocol: 6-8 week old outbred male I.C.R. mice, weighing 25-35g were housed two per cage in a climatically controlled animal room (23-25° C.) under 12 hours light/dark cycling. The animals were allowed access to water and food ad lib. The mice used for the experiment were brought to particular laboratory conditions for two days. All the experiments were conducted between 14:00 and 18:00. Scopolamine hydrobromide (Sigma, USA) was dissolved in saline in 4 mg/kg and administered in a volume of 10 ml/kg body weight. The experimental mice were randomly assigned into 3 groups, each consisting of 12 mice with similar mean body weights and age. Test sample was dissolved in physiological saline before the experiments each day. Scopolamine was administered through intraperitoneal injection (i.p.) at 30 minutes before the swimming tasks to induce memory deficit. Oral administrations (p.o.) of the test compound, or saline (0.9%) was started at the first day of the task and administrated according to a volume of 10 ml/kg body weight. Oral drug administrations were 45 minutes before the swimming tasks and conducted daily for 4 consecutive days until the end of the task.
# Each mouse was subjected to 4 trials per day for 4 consecutive days. […] The student t-test with repeated measures was used to analyze latency values, and calculated as the mean latency periods for each mouse. Data are expressed as means±S.E.M, *=P<0.05 and **=P<0.005 versus scopolamine.
# Scopolamine (SCOP; 4 mg/kg) was first administered intra-peritoneally to mice to impair their memories. […] On each day, the time taken for the mice to detect the hidden platform in the water maze was measured, in seconds. Measurements were calculated as the mean latency periods for each mouse; n=24. Data are expressed as mean±s.e.m. and compared to Saline/SCOP group. […]
# In FIG. 13, mice were first orally administered LC-24 (30 mg/kg), scopolamine (4 mg/kg) was i.p. administered to mice 15 min to impair their memories. […] On each day, the time taken for the mice to detect the hidden platform in the water maze was measured, in seconds. […]
Compound,"protection of rat primary cortical neurons from NMDA insults (LDH release, fold change vs DMSO) [1]","cell death (LDH release, cell cytotoxicity vs DMSO) [1]",escape latency ([2]; 30 or 100 mg/kg oral),"escape latency ([2]; 100 mg/kg oral, 4 days)","escape latency ([2]; 30 mg/kg oral, 4 days)"
CC[C@H]1N[C@@H](CC(C)C)C(CC)(CC)O1 [LC-02],significantly protected,cell death was markedly reduced,decreases escape latencies,,
CCCC1(CCC)O[C@@H](CC)N[C@H]1CC(C)C [LC-06],significantly protected,cell death was markedly reduced,,reversed the increased escape latency induced by scopolamine,
CC[C@H]1N[C@@H](Cc2ccccc2)C(CC)(CC)O1 [LC-24],significantly protected,cell death was markedly reduced,,,reduced the increased escape latency induced by scopolamine
